Measured values: paper PMC5713445, “Ergostane-Type Sterols from King Trumpet Mushroom (Pleurotus eryngii) and Their Inhibitory Effects on Aromatase” (International Journal of Molecular Sciences, 2017)

Biological target: T1, human recombinant aromatase (Homo sapiens, UniProt P11511)
T1 sequence (P11511 1-503): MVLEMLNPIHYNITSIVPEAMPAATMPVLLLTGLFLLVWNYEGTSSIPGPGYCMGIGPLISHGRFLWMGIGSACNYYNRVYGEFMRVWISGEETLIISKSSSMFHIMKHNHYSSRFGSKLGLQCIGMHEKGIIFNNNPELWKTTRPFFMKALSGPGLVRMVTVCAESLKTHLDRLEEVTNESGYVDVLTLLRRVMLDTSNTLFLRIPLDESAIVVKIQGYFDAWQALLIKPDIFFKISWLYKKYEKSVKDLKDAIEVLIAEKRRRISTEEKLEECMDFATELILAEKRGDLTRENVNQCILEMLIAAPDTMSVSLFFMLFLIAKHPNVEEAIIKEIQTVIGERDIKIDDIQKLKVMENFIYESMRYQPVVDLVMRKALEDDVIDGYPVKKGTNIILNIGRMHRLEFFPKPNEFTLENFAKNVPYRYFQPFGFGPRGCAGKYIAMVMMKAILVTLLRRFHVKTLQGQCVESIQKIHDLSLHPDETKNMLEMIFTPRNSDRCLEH
Experiment: Inhibitory assay against human recombinant aromatase (Human CYP19 + P450 Reductase SUPERSOMES, dibenzylfluorescein)
Format: biochemical
Details: for aromatase inhibitory activity (in words): tested at 10, 30 and 100 µM (4, 6: 1, 3 and 10 µM); for IC50: three determinations
Description: Each value represents the mean ± the standard error (S.E.) of three determinations.
Dibenzylfluorescein (DBF) and Human CYP19 + P450 Reductase SUPERSOMES (human recombinant aromatase) were obtained from BD Biosciences (Heidelberg, Germany). The physical data were obtained by the following instruments: a Yanagimoto micro-melting point apparatus for melting points (uncorrected); a JASCO DIP-1000 digital polarimeter for Optical rotations; a Perkin-Elmer 1720X FTIR spectrophotometer for IR spectra; an Agilent-NMR-vnmrs600 for the ^1H and ^13C NMR spectra (^1H: 600 MHz; ^13C: 150 MHz) in CDCl3 with tetramethylsilane as the internal standard; a Hitachi M-4000H double-focusing mass spectrometer for EIMS (70 eV). Column chromatography was carried out by Silica gel (70–230 mesh, Merck, Darmstadt, Germany) and silica gel 60 (230–400 mesh, Nacalai Tesque, Inc., Kyoto, Japan). HPLC was performed by the following systems; system I: Cosmosil 5SL-II column (25 cm × 20 mm i.d.) (Nacalai Tesque, Inc.), hexane/EtOAc (5:1), 8.0 mL/min, 35 °C; system II: Shimpack PREP-ODS (25 cm × 20 mm i.d.) (Shimadzu corp., Kyoto, Japan), MeOH, 8.0 mL/min, 35 °C; system III: Cosmosil 5C18-MS-II column (25 cm × 20 mm i.d.) (Nacalai Tesque, Inc.), MeOH/H2O (95:5), flow rate, 4.0 mL/min, 35 °C; system IV: Cosmosil 5C18-MS-II column, MeOH/H2O (9:1), 4.0 mL/min, 35 °C.
Inhibitory assay against human recombinant aromatase was performed as described previously.

Row | IC50 | Molecule | aromatase inhibitory activity (in words)
1 | 8.1 µM | CC(C)[C@@H](C)/C=C/[C@@H](C)[C@H]1CC[C@H]2C3=CC=C4C[C@@H](O)CC[C@]4(C)[C@H]3CC[C@]12C [Compound 4, (22E)-ergosta-5,7,22-trien-3β-ol] | comparable aromatase inhibitory activities to aminoglutethimide
2 | 33.8 µM | CC(C)[C@@H](C)/C=C/[C@@H](C)[C@H]1CC[C@H]2c3ccc4c(c3CC[C@]12C)CC[C@H](O)C4 [Compound 5, (22E)-19-norergosta-5,7,9,22-tetraen-3β-ol] | –
3 | 66.1 µM | CC(C)[C@@H](C)/C=C/[C@@H](C)[C@H]1CC[C@H]2C3=CCC4C[C@@H](O)CC[C@]4(C)[C@H]3CC[C@]12C (stereo partly drawn) [Compound 3, (22E)-Ergosta-7,22-dien-3β-ol] | –
4 | 32.6 µM | CC(C)[C@@H](C)/C=C/[C@@H](C)[C@H]1CC[C@@H]2[C@]1(C)CC=C1[C@]23C=C[C@]2(C[C@@H](O)CC[C@]12C)OO3 [Compound 10, 9,11-dehydroergosterol peroxide] | –
5 | – | 5α,6α-epoxyergost-8(14)-ene-3β,7α-diol [Compound 2] | weakly inhibited aromatase
6 | 17.3 µM | CC(C)[C@@H](C)/C=C/[C@@H](C)[C@H]1CC=C2C3=C(CC[C@@]21C)[C@@]1(C)CC[C@H](O)C[C@@]12O[C@H]2[C@@H]3O [Compound 1, (22E)-5α,6α-epoxyergosta-8,14,22-triene-3β,7β-diol] | –

Row | Molecule | IC50 | aromatase inhibitory activity (in words)
7 | CC(C)[C@@H](C)/C=C/[C@@H](C)[C@H]1CC[C@H]2C3=CC(=O)[C@@]4(O)C[C@@H](O)CC[C@]4(C)[C@@]3(O)CC[C@]12C [Compound 7, (22E)-3β,5α,9α-trihydroxyergosta-7,22-dien-6-one] | > 100 µM | weakly inhibited aromatase
8 | CC(C)[C@@H](C)/C=C/[C@@H](C)[C@H]1CC[C@@H]2[C@]1(C)CC[C@H]1[C@]23C=C[C@]2(C[C@@H](O)CC[C@]12C)OO3 [Compound 9, ergosterol peroxide] | > 100 µM | weakly inhibited aromatase
9 | CC(C)[C@@H](C)/C=C/[C@@H](C)[C@H]1CC[C@H]2C3=CC(=O)[C@@]4(O)C[C@@H](O)CC[C@]4(C)[C@H]3CC[C@]12C [Compound 8, (22E)-3β,5α-dihydroxyergosta-7,22-dien-6-one] | > 100 µM | weakly inhibited aromatase
10 | CO[C@@H]1C=C2[C@@H]3CC[C@H]([C@H](C)/C=C/[C@H](C)C(C)C)[C@@]3(C)CC[C@@H]2[C@@]2(C)CC[C@H](O)C[C@]12O [Compound 6, (22E)-6β-methoxyergosta-7,22-diene-3β,5α-diol] | 2.8 µM | comparable aromatase inhibitory activities to aminoglutethimide
